Consider 22 molecules from patent US10800776B2, “Fluorine-containing triazolopyridine, and manufacturing method, pharmaceutical composition, and application thereof” (SHANGHAI INSTITUTE OF MATERIA MEDICA, CHINESE ACADEMY OF …, priority 2016, dated 2020).

The term pIC50 denotes −log10 of the IC50, conventionally taken in molar units. Low values mean a high IC50, high ones a low IC50. The inhibition is the percentage by which the read-out fell short of the control. The pEC50 is the EC50 on a negative log10 scale, so that one unit is a factor of ten.

pEC50, pIC50: −log10 of the molar value. A value given as a limit tells only on which side of the number the result lay.

One series concerns ICR mice. Nature of the series: Mouse swimming depression test. It counts as in vivo. To be noted: for non-movement time (%) Mean ± SEM: positive control, 10 mg/kg, intraperitoneal, 0.5 hours before test. As for the experimental part:
Experiment objectives: to observe the effect of the test compound on the depressive status of mice
Experimental animals: ICR mice, 20-28 g, both male and female
Experimental equipment: plexiglass tube: cylindrical, 25 cm high, 15 cm inner diameter
Sample treatment: The test compounds were ground with 1% CMC (sodium carboxymethyl cellulose) to prepare a homogeneous solution. In vivo dose was 5 mg/kg, 10 mg/kg and 20 mg/kg, the compound was orally administrated at 0.1 ml/10 g volume/body weight. Positive control drugs (amitriptyline and fluoxetine) were dissolved with 0.9% saline, in vivo dose was 10 mg/kg, intraperitoneal injected at 0.1 ml/10 g volume/body weight. (Note: mice were given the compound after fasted for 8 hours without water-fasted.)
Experimental principle: The mouse is placed in a limited space which can not escape to swim, thus inducing animals to non-movement state which reflects the animal's desperate behavior.
Experimental Methods: mice were grouped randomly, 15 minutes swimming depression was modeled at the first day, and equivalent mice were selected. The second day of the test, 1 hour after the animals were orally administered the compound (0.5 hours after intraperitoneal injection) and then the animals were put in water to record the non-movement time in the later 4 min of 6 min.

The target of another series is hERG potassium channel (Homo sapiens (Human), UniProt Q12809). Nature of the series: hERG potassium channel toxicity assay (hERG patch clamp). It counts as cell-based. To be noted: for pIC50: hERG patch clamp; for inhibition at 40 µM: at maximum concentration 40 μM. As for the experimental part:
Experimental method: hERG patch clamp detection method
Experimental procedure: Compound preparation: the stock solution of a compound was diluted with extracellular fluid, 2 μL of the compound stock solution was added to 998 μL extracellular fluid, and then serially diluted 5 times in an extracellular fluid containing 0.2% DMSO to obtain the final concentration to be tested.

Another series concerns the target mGluR2 (Homo sapiens (Human), UniProt Q14416). Kind of series: In vitro activity test for mGluR2 (HDB Fluo-8 calcium fluorescence, HEK/mGluR2 cell line). It counts as cell-based. The text has this: Experimental materials: HEK/mGluR2 cell line (human […] transfected HEK cell line), DMEM (FBS) medium, positive control LY487379 (purchased from sigma; CAS: to 352317-17-1)
Experimental instrument: FLIPR Tetra real-time fluorescence imaging analysis system
Experimental method: HDB Fluo-8 calcium fluorescence detection method
Experimental principle: HDB Fluo-8 calcium ion fluorescence detection method is a fast, simple and reliable fluorescence detection method of intracellular calcium concentration changes. The Fluo 8-AM fluorescent dye is an acetyl methyl ester derivative of Fluo 8 which can easily penetrate into the cell membrane by culture. The fluorescent dye in the cell will be hydrolyzed by intracellular esterase, the resulting Fluo 8 as a polar molecule, cannot easily pass through the lipid bimolecular membrane, and will be retained in the cell, and combine with calcium (Ca^2+) to produce fluoresces.
Cells expressing GPCR receptor protein (mGluR2) were first calibrated with a calcium ion sensitive fluorescent probe and then stimulated with the compound. After stimulation, the receptor activates the calcium ion mobilization, and the fluorescent probe captures the calcium ion to induce the fluorescence signal. The signal can be read by a fluoroscopy plate. The fluorescent plate reader contains a sample addition for compound addition, thus enabling the change of the fluorescence value of the compound be read in real time.

A further series concerns C57BL/6 mice. Nature of the series: Mouse open field experiment. It counts as in vivo. To be noted: mouse, in vivo. As for the experimental part:
Experiment objectives: to observe the anti-anxiety effect of the test compound on the mice by open field experiment.
Experimental animals: male C57BL/6 mice, 10 weeks old, purchased from Beijing Huafukang Biotechnology Co., Ltd.
Animal rearing: The temperature in the animal room was maintained at 20-25° C., the humidity was maintained at 40-70%, and the photoperiod was 12 hours light and 12 hours dark. During feeding, the mice were housed in standard mouse cages, with colored labels on each cage clearly indicating the item number, and the basic information such as the responsible person, group, animal number and animal gender. All animals were given free access to pure water and standard certified rodent feed. Before the start of the experiment, the experimental animals were adapted to the feeding environment for at least one week.
The compound to be tested, intraperitoneally administered, 30 mg/kg.
Experimental principle: Based on the instincts of rodents tending to avoid light and fear of exploring open fields. When the experimental animals were first placed in the open field, the central area was a potential threat to the animals, while the peripheral area was relatively safe, and rats and mice were more likely to move along the perimeter of the field. Therefore, if the animal is of high anxiety level, it tends to stay in the peripheral area. Conversely, the number and time of exploration in the central area will increase.
Experimental grouping and administration: Experimental animals were randomly divided into 5 groups as follows:
During the 30-minute test period, the total distance traveled by the experimental animals, the central area dwell time, and the percentage of the central area travel distance will be detected and recorded.

Where [1] appears, read: human, hERG, read-out: Inhibition rate (%).

Chain of hERG potassium channel (Q12809 whole entry): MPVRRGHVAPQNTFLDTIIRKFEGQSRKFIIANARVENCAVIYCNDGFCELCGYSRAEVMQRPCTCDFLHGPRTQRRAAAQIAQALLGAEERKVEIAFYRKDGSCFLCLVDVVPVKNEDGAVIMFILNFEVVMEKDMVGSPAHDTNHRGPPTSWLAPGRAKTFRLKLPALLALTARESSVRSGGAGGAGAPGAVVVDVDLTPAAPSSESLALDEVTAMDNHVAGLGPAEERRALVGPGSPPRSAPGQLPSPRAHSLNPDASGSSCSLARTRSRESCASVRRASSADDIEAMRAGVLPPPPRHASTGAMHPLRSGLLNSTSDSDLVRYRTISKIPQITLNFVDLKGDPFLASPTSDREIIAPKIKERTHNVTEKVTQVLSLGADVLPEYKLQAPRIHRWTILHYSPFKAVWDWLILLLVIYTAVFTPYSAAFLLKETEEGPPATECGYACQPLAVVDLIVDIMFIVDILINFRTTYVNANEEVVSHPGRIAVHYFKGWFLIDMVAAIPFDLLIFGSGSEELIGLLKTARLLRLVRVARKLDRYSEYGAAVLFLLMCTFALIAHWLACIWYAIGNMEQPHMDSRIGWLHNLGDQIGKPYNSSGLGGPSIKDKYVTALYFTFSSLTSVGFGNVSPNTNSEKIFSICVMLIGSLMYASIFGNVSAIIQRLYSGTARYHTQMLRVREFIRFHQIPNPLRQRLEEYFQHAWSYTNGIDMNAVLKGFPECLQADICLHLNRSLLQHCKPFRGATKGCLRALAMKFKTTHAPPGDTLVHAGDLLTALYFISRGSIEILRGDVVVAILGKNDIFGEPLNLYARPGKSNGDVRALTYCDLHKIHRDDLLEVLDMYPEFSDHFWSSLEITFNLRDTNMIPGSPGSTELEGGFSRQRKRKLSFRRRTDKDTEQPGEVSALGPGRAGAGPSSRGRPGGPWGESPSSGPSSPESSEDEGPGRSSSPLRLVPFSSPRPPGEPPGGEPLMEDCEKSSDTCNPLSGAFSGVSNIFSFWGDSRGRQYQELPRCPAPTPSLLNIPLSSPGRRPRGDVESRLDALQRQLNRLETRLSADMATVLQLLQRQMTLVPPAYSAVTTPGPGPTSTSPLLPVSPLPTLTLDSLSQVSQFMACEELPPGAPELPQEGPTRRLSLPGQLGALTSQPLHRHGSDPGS
Chain of mGluR2 (Q14416 19-872): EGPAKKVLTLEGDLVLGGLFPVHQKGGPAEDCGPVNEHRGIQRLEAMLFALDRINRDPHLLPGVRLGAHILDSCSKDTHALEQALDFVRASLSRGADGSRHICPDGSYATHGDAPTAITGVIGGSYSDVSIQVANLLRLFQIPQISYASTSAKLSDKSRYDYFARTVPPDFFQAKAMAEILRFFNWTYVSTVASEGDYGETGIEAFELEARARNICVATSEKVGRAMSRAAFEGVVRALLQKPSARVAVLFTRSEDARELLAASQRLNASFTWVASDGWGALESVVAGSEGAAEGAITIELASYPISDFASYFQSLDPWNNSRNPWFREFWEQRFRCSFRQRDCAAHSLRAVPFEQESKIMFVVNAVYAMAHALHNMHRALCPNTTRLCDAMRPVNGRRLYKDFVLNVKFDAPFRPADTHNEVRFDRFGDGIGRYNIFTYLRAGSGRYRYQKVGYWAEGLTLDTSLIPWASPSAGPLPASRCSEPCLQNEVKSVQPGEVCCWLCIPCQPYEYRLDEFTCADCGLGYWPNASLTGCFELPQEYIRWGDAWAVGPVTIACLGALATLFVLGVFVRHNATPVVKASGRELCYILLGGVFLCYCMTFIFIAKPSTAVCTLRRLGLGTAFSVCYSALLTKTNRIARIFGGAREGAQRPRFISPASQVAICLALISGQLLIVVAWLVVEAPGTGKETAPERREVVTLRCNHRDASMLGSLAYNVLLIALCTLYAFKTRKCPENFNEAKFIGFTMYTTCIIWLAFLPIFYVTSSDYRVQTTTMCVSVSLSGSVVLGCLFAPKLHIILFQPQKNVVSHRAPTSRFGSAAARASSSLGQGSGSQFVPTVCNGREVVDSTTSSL

Take `CNCCC(Oc1ccc(C(F)(F)F)cc1)c1ccccc1` (stereo not drawn) [Fluoxetine, reference compound]: in the series on ICR mice, the “non-movement time (%) Mean ± SEM” value came out at 33.98 ± 9.84 %.

Consider `COC(=O)c1ccc(-c2ccn3c(CC4CC4(F)F)nnc3c2Cl)c(Cl)c1` (stereo not drawn) [Compound 46, Methyl 3-Chloro-4-(8-chloro-3-((2,2-difluorocyclopropyl)methyl)-[1,2,4]triazole[4,3-a]pyridine-7-yl)benzoate], for which, at hERG potassium channel, the pIC50 was 4.97. In addition, the inhibition at 40 µM on hERG potassium channel (setting [1]) came to 82.5%. Also, the negative-log EC50 (pEC50) on mGluR2 was 6.64.

In the case of `COC(=O)c1ccc(-c2ccn3c(CC4CC4(F)F)nnc3c2)c(F)c1` (stereo not drawn) [Compound 29, Methyl 4-(3-((2,2-difluorocyclopropyl)methyl)-[1,2,4]triazolo[4,3-a]pyridin-7-yl)-3-fluorobenzonate], the pIC50 against hERG potassium channel was 4.76. Besides, the inhibition at 40 µM at hERG potassium channel (setting [1]) was 62.4%. Besides, the pEC50 on mGluR2 was 6.27.

Take `FC1(F)CC1Cc1nnc2cc(-c3cccc4cccnc34)ccn12` (stereo not drawn) [Compound 34, 8-(3-((2,2-difluorocyclopropyl)methyl)-[1,2,4]triazole[4,3-a]pyridin-7-yl)quinoline]: the pIC50 on hERG potassium channel is less than 4.40. Also, on hERG potassium channel (setting [1]), the inhibition at 40 µM came out at 36%. Besides, the negative logarithm of the EC50 (pEC50) on mGluR2 is 6.21.

Regarding `Fc1cccc(-c2ccn3c(CC4CC4(F)F)nnc3c2Cl)c1` (stereo not drawn) [Compound 37, 8-chloro-3-((2,2-difluorocyclopropyl)methyl)-7-(3-fluorophenyl)-[1,2,4] triazole[4,3-a]pyridine], the negative-log IC50 (pIC50) against hERG potassium channel is 4.82. On hERG potassium channel (setting [1]), the inhibition at 40 µM came out at 57%. The pEC50 on mGluR2 is 6.72.

`COc1ccc(-c2ccn3c(CC4CC4(F)F)nnc3c2)cc1F` (stereo not drawn) [Compound 23, 3-((2,2-difluorocyclopropyl)methyl)-7-(3-fluoro-4-methoxyphenyl)-[1,2,4] triazole[4,3-a]pyridine] showed a pIC50 against hERG potassium channel of less than 4.40. Moreover, on hERG potassium channel (setting [1]), the inhibition at 40 µM came out at 46%. In addition, the pEC50 on mGluR2 is 6.07.

For `Fc1cccc(-c2ccn3c(CC4CC4(F)F)nnc3c2)c1` (stereo not drawn) [Compound 11, 3-((2,2-Difluorocyclopropyl)methyl)-7-(3-fluorophenyl)-[1,2,4]triazole [4,3-a]pyridine], at hERG potassium channel, the pIC50 was less than 4.40. The inhibition at 40 µM on hERG potassium channel (setting [1]) was 45.9%. Also, the pEC50 on mGluR2 is 6.15.

In the case of `COc1cc(N)c(Cl)cc1C(=O)NC1CCN(CCCOc2ccc(F)cc2)CC1OC` (stereo not drawn) [Cisapride, reference compound], the inhibition at 3 µM at hERG potassium channel (human, hERG, positive compound, maximum test concentration 3 μM, read-out: Inhibition rate (%)) was found to be 96.6%.

With `COc1ccc(-c2ccn3c(CC4CC4(F)F)nnc3c2Cl)cc1F` (stereo not drawn) [Compound 44, 8-chloro-3-((2,2-difluorocyclopropyl)methyl)-7-(3-fluoro-4-methoxyphenyl)-[1,2,4]triazole[4,3-a]pyridine], at hERG potassium channel, the pIC50 was 4.79. Also, at hERG potassium channel (setting [1]), the inhibition at 40 µM amounted to 64.5%. Also, on mGluR2, the pEC50 was 6.93.

On hERG potassium channel, `Cc1cc(F)ccc1-c1ccn2c(CC3CC3(F)F)nnc2c1Cl` (stereo not drawn) [Compound 41, 8-chloro-3-((2,2-difluorocyclopropyl)methyl)-7-(4-fluoro-2-methylphenyl)-[1,2,4]triazole[4,3-a]pyridine] gave a pIC50 of 4.95. In addition, the inhibition at 40 µM at hERG potassium channel (setting [1]) came to 80.1%. Besides, at mGluR2, the negative-log EC50 (pEC50) was 6.07.

Take `CC(C)(O)c1ccc(-c2ccn3c(CC4CC4(F)F)nnc3c2)cc1` (stereo not drawn) [Compound 21, 2-(4-(3-((2,2-difluorocyclopropyl)methyl)-[1,2,4]triazole[4,3-a]pyridin-7-yl)phenyl)propan-2-ol]: the pIC50 against hERG potassium channel is 4.50. In addition, at hERG potassium channel (setting [1]), the inhibition at 40 µM was 52.8%. Also, the pEC50 on mGluR2 is 6.65.

For `Cc1cccc(-c2ccn3c(CC4CC4(F)F)nnc3c2Cl)c1` (stereo not drawn) [Compound 36, 8-chloro-3-((2,2-difluorocyclopropyl)methyl)-7-(m-tolyl)-[1,2,4] triazole[4,3-a]pyridine], the pIC50 on hERG potassium channel was less than 4.40. Besides, the inhibition at 40 µM at hERG potassium channel (setting [1]) came out at 48.9%. At mGluR2, the negative-log EC50 (pEC50) was 6.89.

At hERG potassium channel, `Cc1cc(-c2ccn3c(CC4CC4(F)F)nnc3c2)ccc1F` (stereo not drawn) [Compound 27, 3-((2,2-difluorocyclopropyl)methyl)-7-(4-fluoro-3-methylphenyl)-[1,2,4] triazole[4,3-a]pyridine] had a pIC50 of less than 4.40. In addition, the inhibition at 40 µM on hERG potassium channel (setting [1]) is 49.9%. Moreover, on mGluR2, the pEC50 is 6.06.

Turning to `FC1(F)CC1Cc1nnc2c(Cl)c(-c3ccc4c(c3)CCO4)ccn12` (stereo not drawn) [Compound 47, 8-chloro-3-((2,2-difluorocyclopropyl)methyl)-7-(2,3-benzodihydrofuran-5-yl)-[1,2,4]triazole[4,3-a]pyridine], the negative logarithm of the IC50 (pIC50) against hERG potassium channel is 5.31. The inhibition at 40 µM at hERG potassium channel (setting [1]) worked out at 96.4%. Moreover, at mGluR2, the pEC50 was 6.67.

In turn, `FC1(F)CC1Cc1nnc2cc(-c3ccc4c(c3)CCO4)ccn12` (stereo not drawn) [Compound 31, 3-((2,2-difluorocyclopropyl)methyl)-7-(2,3-benzodihydrofuran-5-yl)-[1,2,4]triazole[4,3-a]pyridine] had a negative-log IC50 (pIC50) at hERG potassium channel of less than 4.40. For the same molecule, at hERG potassium channel (setting [1]), the inhibition at 40 µM was 48.1%. Also, the pEC50 on mGluR2 was 6.43.

In the case of `Cc1cc(F)ccc1-c1ccn2c(CC3CC3(F)F)nnc2c1` (stereo not drawn) [Compound 26, 3-((2,2-difluorocyclopropyl)methyl)-7-(4-fluoro-2-methylphenyl)-[1,2,4] triazole[4,3-a]pyridine], at hERG potassium channel, the negative logarithm of the IC50 (pIC50) was less than 4.40. Further, the inhibition at 40 µM at hERG potassium channel (setting [1]) amounted to 49.4%. Moreover, on mGluR2, the pEC50 is 6.11.

For `Fc1ccc(-c2ccn3c(CC4CC4(F)F)nnc3c2)cc1` (stereo not drawn) [Compound 13, 3-((2,2-difluorocyclopropyl)methyl)-7-(4-fluorophenyl)-[1,2,4]triazole [4,3-a]pyridine], the negative-log IC50 (pIC50) on hERG potassium channel was 4.50. On hERG potassium channel (setting [1]), the inhibition at 40 µM is 52.8%. For the same molecule, the negative-log EC50 (pEC50) on mGluR2 was 6.42.

On to `CN1C(=O)CN=C(c2ccccc2)c2cc(Cl)ccc21` [Diazepam, reference compound], for which the “anti-anxiety effect in the open field experiment” value in the series with C57BL/6 mice was “very significant anti-anxiety effect”.

Molecule `FC1(F)CC1Cc1nnc2cc(-c3cccc4c3OCC4)ccn12` (stereo not drawn) [Compound 32, 3-((2,2-difluorocyclopropyl)methyl)-7-(2,3-benzodihydrofuran-7-yl)-[1,2,4]triazole[4,3-a]pyridine] gave a pIC50 on hERG potassium channel of less than 4.40. Moreover, on hERG potassium channel (setting [1]), the inhibition at 40 µM was 51%. Moreover, the negative-log EC50 (pEC50) on mGluR2 is 6.08.

Take `COc1ccccc1Oc1ccc(N(Cc2cccnc2)S(=O)(=O)CC(F)(F)F)cc1` [LY487379, reference compound]: at mGluR2, the negative-log EC50 (pEC50) was 6.64.

The molecule `Cc1cccc(-c2ccn3c(CC4CC4(F)F)nnc3c2)c1` (stereo not drawn) [Compound 10, 3-((2,2-difluorocyclopropyl)methyl)-7-(m-tolyl)-[1,2,4]triazole [4,3-a]pyridine] gave a negative-log IC50 (pIC50) against hERG potassium channel of less than 4.40. In addition, at hERG potassium channel (setting [1]), the inhibition at 40 µM came to 38.1%. The pEC50 on mGluR2 is 6.84.

For the molecule `CN(C)CCC=C1c2ccccc2CCc2ccccc21` [Amitriptyline, reference compound], the “"no movement time" of swimming in mice (in words)” value in the series on ICR mice (mouse, in vivo) is on record as “significantly improved”. In addition, in the series with ICR mice, the “non-movement time (%) Mean ± SEM” value came out at 5.32 ± 2.08 %.
